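These data come from cells grown in 96-well plates and exposed to compound for 48 hours at five concentrations. Definition used: TGI = concentration required for complete inhibition of growth.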
test system: HL-60(TB) leukemia; assay: growth of human tumour cells (NCI), 48 h

Row | Compound | TGI
1 | Sc1ccccc1S | > 100 µM
2 | CN(C)c1[se]nc2c1c(=O)n(C)c(=O)n2C | > 100 µM

test system: HOP-18 NSCLC; assay: growth of human tumour cells (NCI), 48 h

Row | Compound | TGI
3 | CC1=C(C(=O)Nc2ccc([N+](=O)[O-])cc2)C(c2cccc([N+](=O)[O-])c2)C(C(=O)Nc2ccc([N+](=O)[O-])cc2)=C(C)N1 | > 100 µM
4 | COc1ccc2c(c1)C1C(CO2)C(c2ccccc2)=NN1c1ccccc1 (stereo unspecified) | > 100 µM
5 | CCOC(=O)c1csc(CCCCCCc2nc(C(=O)OCC)cs2)n1 | > 100 µM
6 | Sc1ccccc1S | > 100 µM
7 | CN(C)c1[se]nc2c1c(=O)n(C)c(=O)n2C | > 100 µM

test system: HOP-62 NSCLC; assay: growth of human tumour cells (NCI), 48 h

Row | Compound | TGI
8 | CC1=C(C(=O)Nc2ccc([N+](=O)[O-])cc2)C(c2cccc([N+](=O)[O-])c2)C(C(=O)Nc2ccc([N+](=O)[O-])cc2)=C(C)N1 | > 100 µM
9 | COc1ccc2c(c1)C1C(CO2)C(c2ccccc2)=NN1c1ccccc1 (stereo unspecified) | > 100 µM
10 | CCOC(=O)c1csc(CCCCCCc2nc(C(=O)OCC)cs2)n1 | > 89.1 µM
11 | Sc1ccccc1S | > 100 µM
12 | CN(C)c1[se]nc2c1c(=O)n(C)c(=O)n2C | > 100 µM

test system: HOP-92 NSCLC; assay: growth of human tumour cells (NCI), 48 h

Row | Compound | TGI
13 | CC1=C(C(=O)Nc2ccc([N+](=O)[O-])cc2)C(c2cccc([N+](=O)[O-])c2)C(C(=O)Nc2ccc([N+](=O)[O-])cc2)=C(C)N1 | 39 µM
14 | COc1ccc2c(c1)C1C(CO2)C(c2ccccc2)=NN1c1ccccc1 (stereo unspecified) | > 100 µM
15 | CCOC(=O)c1csc(CCCCCCc2nc(C(=O)OCC)cs2)n1 | > 100 µM
16 | Sc1ccccc1S | > 100 µM
17 | CN(C)c1[se]nc2c1c(=O)n(C)c(=O)n2C | > 100 µM

test system: HT29 colon; assay: growth of human tumour cells (NCI), 48 h

Row | Compound | TGI
18 | CC1=C(C(=O)Nc2ccc([N+](=O)[O-])cc2)C(c2cccc([N+](=O)[O-])c2)C(C(=O)Nc2ccc([N+](=O)[O-])cc2)=C(C)N1 | > 100 µM
19 | COc1ccc2c(c1)C1C(CO2)C(c2ccccc2)=NN1c1ccccc1 (stereo unspecified) | > 100 µM
20 | CCOC(=O)c1csc(CCCCCCc2nc(C(=O)OCC)cs2)n1 | > 100 µM
21 | Sc1ccccc1S | > 100 µM
22 | CN(C)c1[se]nc2c1c(=O)n(C)c(=O)n2C | > 100 µM

test system: IGROV1 ovarian; assay: growth of human tumour cells (NCI), 48 h

Row | Compound | TGI
23 | CC1=C(C(=O)Nc2ccc([N+](=O)[O-])cc2)C(c2cccc([N+](=O)[O-])c2)C(C(=O)Nc2ccc([N+](=O)[O-])cc2)=C(C)N1 | > 100 µM
24 | COc1ccc2c(c1)C1C(CO2)C(c2ccccc2)=NN1c1ccccc1 (stereo unspecified) | > 100 µM
25 | CCOC(=O)c1csc(CCCCCCc2nc(C(=O)OCC)cs2)n1 | > 100 µM
26 | Sc1ccccc1S | > 100 µM
27 | CN(C)c1[se]nc2c1c(=O)n(C)c(=O)n2C | > 100 µM

test system: K-562 leukemia; assay: growth of human tumour cells (NCI), 48 h

Row | Compound | TGI
28 | CC1=C(C(=O)Nc2ccc([N+](=O)[O-])cc2)C(c2cccc([N+](=O)[O-])c2)C(C(=O)Nc2ccc([N+](=O)[O-])cc2)=C(C)N1 | > 100 µM
29 | COc1ccc2c(c1)C1C(CO2)C(c2ccccc2)=NN1c1ccccc1 (stereo unspecified) | > 100 µM
30 | CCOC(=O)c1csc(CCCCCCc2nc(C(=O)OCC)cs2)n1 | > 62 µM
31 | Sc1ccccc1S | > 100 µM
32 | CN(C)c1[se]nc2c1c(=O)n(C)c(=O)n2C | > 100 µM

test system: KM12 colon; assay: growth of human tumour cells (NCI), 48 h

Row | Compound | TGI
33 | CC1=C(C(=O)Nc2ccc([N+](=O)[O-])cc2)C(c2cccc([N+](=O)[O-])c2)C(C(=O)Nc2ccc([N+](=O)[O-])cc2)=C(C)N1 | > 100 µM
34 | COc1ccc2c(c1)C1C(CO2)C(c2ccccc2)=NN1c1ccccc1 (stereo unspecified) | > 100 µM
35 | CCOC(=O)c1csc(CCCCCCc2nc(C(=O)OCC)cs2)n1 | > 100 µM
36 | CN(C)c1[se]nc2c1c(=O)n(C)c(=O)n2C | > 100 µM

test system: KM20L2 colon; assay: growth of human tumour cells (NCI), 48 h

Row | Compound | TGI
37 | CC1=C(C(=O)Nc2ccc([N+](=O)[O-])cc2)C(c2cccc([N+](=O)[O-])c2)C(C(=O)Nc2ccc([N+](=O)[O-])cc2)=C(C)N1 | > 100 µM
38 | COc1ccc2c(c1)C1C(CO2)C(c2ccccc2)=NN1c1ccccc1 (stereo unspecified) | > 100 µM
39 | CCOC(=O)c1csc(CCCCCCc2nc(C(=O)OCC)cs2)n1 | > 100 µM
40 | Sc1ccccc1S | > 100 µM
41 | CN(C)c1[se]nc2c1c(=O)n(C)c(=O)n2C | > 100 µM

test system: LOX IMVI melanoma; assay: growth of human tumour cells (NCI), 48 h

Row | Compound | TGI
42 | CC1=C(C(=O)Nc2ccc([N+](=O)[O-])cc2)C(c2cccc([N+](=O)[O-])c2)C(C(=O)Nc2ccc([N+](=O)[O-])cc2)=C(C)N1 | > 100 µM
43 | COc1ccc2c(c1)C1C(CO2)C(c2ccccc2)=NN1c1ccccc1 (stereo unspecified) | > 100 µM
44 | CCOC(=O)c1csc(CCCCCCc2nc(C(=O)OCC)cs2)n1 | > 54.5 µM
45 | Sc1ccccc1S | > 100 µM
46 | CN(C)c1[se]nc2c1c(=O)n(C)c(=O)n2C | > 100 µM

test system: LXFL 529 NSCLC; assay: growth of human tumour cells (NCI), 48 h

Row | Compound | TGI
47 | CC1=C(C(=O)Nc2ccc([N+](=O)[O-])cc2)C(c2cccc([N+](=O)[O-])c2)C(C(=O)Nc2ccc([N+](=O)[O-])cc2)=C(C)N1 | > 100 µM
48 | COc1ccc2c(c1)C1C(CO2)C(c2ccccc2)=NN1c1ccccc1 (stereo unspecified) | > 100 µM
49 | CCOC(=O)c1csc(CCCCCCc2nc(C(=O)OCC)cs2)n1 | > 100 µM
50 | Sc1ccccc1S | > 100 µM
51 | CN(C)c1[se]nc2c1c(=O)n(C)c(=O)n2C | > 100 µM

test system: M14 melanoma; assay: growth of human tumour cells (NCI), 48 h

Row | Compound | TGI
52 | CC1=C(C(=O)Nc2ccc([N+](=O)[O-])cc2)C(c2cccc([N+](=O)[O-])c2)C(C(=O)Nc2ccc([N+](=O)[O-])cc2)=C(C)N1 | > 100 µM
53 | CCOC(=O)c1csc(CCCCCCc2nc(C(=O)OCC)cs2)n1 | > 100 µM
54 | Sc1ccccc1S | > 100 µM

test system: M19-MEL melanoma; assay: growth of human tumour cells (NCI), 48 h

Row | Compound | TGI
55 | CC1=C(C(=O)Nc2ccc([N+](=O)[O-])cc2)C(c2cccc([N+](=O)[O-])c2)C(C(=O)Nc2ccc([N+](=O)[O-])cc2)=C(C)N1 | > 100 µM
56 | COc1ccc2c(c1)C1C(CO2)C(c2ccccc2)=NN1c1ccccc1 (stereo unspecified) | > 100 µM
57 | CCOC(=O)c1csc(CCCCCCc2nc(C(=O)OCC)cs2)n1 | 57.5 µM
58 | Sc1ccccc1S | > 100 µM
59 | CN(C)c1[se]nc2c1c(=O)n(C)c(=O)n2C | > 100 µM

test system: MALME-3M melanoma; assay: growth of human tumour cells (NCI), 48 h

Row | Compound | TGI
60 | CC1=C(C(=O)Nc2ccc([N+](=O)[O-])cc2)C(c2cccc([N+](=O)[O-])c2)C(C(=O)Nc2ccc([N+](=O)[O-])cc2)=C(C)N1 | > 100 µM
61 | COc1ccc2c(c1)C1C(CO2)C(c2ccccc2)=NN1c1ccccc1 (stereo unspecified) | > 100 µM
62 | CCOC(=O)c1csc(CCCCCCc2nc(C(=O)OCC)cs2)n1 | > 100 µM
63 | Sc1ccccc1S | > 100 µM
64 | CN(C)c1[se]nc2c1c(=O)n(C)c(=O)n2C | > 100 µM

test system: MOLT-4 leukemia; assay: growth of human tumour cells (NCI), 48 h

Row | Compound | TGI
65 | CC1=C(C(=O)Nc2ccc([N+](=O)[O-])cc2)C(c2cccc([N+](=O)[O-])c2)C(C(=O)Nc2ccc([N+](=O)[O-])cc2)=C(C)N1 | > 100 µM
66 | COc1ccc2c(c1)C1C(CO2)C(c2ccccc2)=NN1c1ccccc1 (stereo unspecified) | > 100 µM
